Source: EP0917880A1, “Inclusion complex of diiodomethyl-p-tolylsulfone with cyclodextrin derivatives” (Wacker-Chemie GmbH, priority 1997, dated 1999)

Key:
[1] = water; cited from earlier work
[2] = system: Aspergillus niger; assay: Determination of Minimum Inhibitory Concentrations (MIC), Sabouraud media; assay type: cell-based; conditions: Amical in free form
Method: (§1) The efficacy of Amical in comparison to Amical/methyl-β-cyclodextrin inclusion compound against different microorganism was tested by measuring the Minimum Inhibitory Concentrations (MIC in µg/ml). For the cell cultures Sabouraud media were used. […]

[3] = system: Penicillium citrinum; assay: as above; assay type: cell-based; conditions: Amical in free form
Method: as §1

[4] = system: Rhizopus oryzae; assay: as above; assay type: cell-based; conditions: Rhizopus arrhizus, Amical in free form
Method: as §1

[5] = system: Cladosporium cladosporioides; assay: as above; assay type: cell-based; conditions: Amical in free form
Method: as §1

MIC [2]: 1.2 µg/mL
MIC [3]: 3.8 µg/mL
MIC [4]: 7.5 to 14 µg/mL
MIC [5]: 1.3 µg/mL
Compound: Cc1ccc(S(=O)(=O)C(I)I)cc1 [Amical, diiodomethyl-p-tolylsulfone]
watersolubility [1]: less than 5 ppm
